In the supplement of paper PMC10883282:
± gives the standard deviation of the averaged measurements.

Key:
Assay in all cases: relative viability vs DMSO control (72 h) (fraction); higher = more viable cells
[1] = system: A204
Outline: (§1)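 Relative viability was measured with ATPLite and expressed as percent growth, averaged across up to triplicate wells. Sarcoma cell lines had been seeded in 384-well plates to reach 80–90% confluence, dosed after 24 h, and incubated 72 h at 37 °C, 5% CO2. All data were rescaled on a scale where 1 is full and 0 is none.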

[2] = system: G401
Outline: as §1

[3] = system: HS729
Outline: as §1

[4] = system: HT1080
Outline: as §1

[5] = system: KHOS-NP
Outline: as §1

[6] = system: RD-ES
Outline: as §1

[7] = system: SK-ES-1
Outline: as §1

[8] = system: SK-LMS-1
Outline: as §1

[9] = system: SW684
Outline: as §1

[10] = system: SW872
Outline: as §1

[11] = system: SW982
Outline: as §1

[12] = system: VA-ES-BJ
Outline: as §1

`C[C@]12O[C@H](C[C@]1(O)CO)n1c3ccccc3c3c4c(c5c6ccccc6n2c5c31)CNC4=O` [Lestaurtinib] gave a relative viability ([1]; 0.00017 µM) of 1.07 ± 0.021, a relative viability ([1]; 0.00051 µM) of 1.07 ± 0.096 and a relative viability ([1]; 0.00152 µM) of 1.07 ± 0.046. For the same compound, the relative viability ([1]; 0.00457 µM) was 1.02 ± 0.055, the relative viability ([1]; 0.01372 µM) was 0.967 ± 0.042 and the relative viability ([1]; 0.04115 µM) was 0.788 ± 0.059. The relative viability ([1]; 0.1235 µM) was 0.56 ± 0.073, the relative viability ([1]; 0.3704 µM) was 0.378 ± 0.053 and the relative viability ([1]; 1.111 µM) was 0.321 ± 0.023. For the same compound, the relative viability ([1]; 3.333 µM) was 0.277 ± 0.023, the relative viability ([1]; 10 µM) was 0.118 ± 0.017 and the relative viability ([2]; 0.00017 µM) was 1.01 ± 0.059. For the same compound, the relative viability ([2]; 0.00051 µM) was 0.985 ± 0.025, the relative viability ([2]; 0.00152 µM) was 1.03 ± 0.019 and the relative viability ([2]; 0.00457 µM) was 1.02 ± 0.059. It also gave a relative viability ([2]; 0.01372 µM) of 1.03 ± 0.041, a relative viability ([2]; 0.04115 µM) of 0.996 ± 0.035 and a relative viability ([2]; 0.1235 µM) of 0.985 ± 0.03. The relative viability ([2]; 0.3704 µM) was 0.912 ± 0.027, the relative viability ([2]; 1.111 µM) was 0.718 ± 0.036 and the relative viability ([2]; 3.333 µM) was 0.023 ± 0.0029. For the same compound, the relative viability ([2]; 10 µM) was 0.00583 ± 0.0018, the relative viability ([3]; 0.00017 µM) was 1.05 ± 0.076 and the relative viability ([3]; 0.00051 µM) was 1 ± 0.097. The relative viability ([3]; 0.00152 µM) was 1.01 ± 0.041, the relative viability ([3]; 0.00457 µM) was 0.932 ± 0.055 and the relative viability ([3]; 0.01372 µM) was 0.863 ± 0.019. It also gave a relative viability ([3]; 0.04115 µM) of 0.797 ± 0.032, a relative viability ([3]; 0.1235 µM) of 0.757 ± 0.016 and a relative viability ([3]; 0.3704 µM) of 0.723 ± 0.059. For the same compound, the relative viability ([3]; 1.111 µM) was 0.619 ± 0.029, the relative viability ([3]; 3.333 µM) was 0.411 ± 0.038 and the relative viability ([3]; 10 µM) was 0.207 ± 0.014. The relative viability ([4]; 0.00017 µM) was 1.09 ± 0.05, the relative viability ([4]; 0.00051 µM) was 1.11 ± 0.013 and the relative viability ([4]; 0.00152 µM) was 1.1 ± 0.025. It also gave a relative viability ([4]; 0.00457 µM) of 1.12 ± 0.019, a relative viability ([4]; 0.01372 µM) of 1.09 ± 0.033 and a relative viability ([4]; 0.04115 µM) of 1.12 ± 0.036. It also gave a relative viability ([4]; 0.1235 µM) of 0.915 ± 0.022, a relative viability ([4]; 0.3704 µM) of 0.877 ± 0.033 and a relative viability ([4]; 1.111 µM) of 0.689 ± 0.013. The relative viability ([4]; 3.333 µM) was 0.185 ± 0.0021, the relative viability ([4]; 10 µM) was 0.0222 ± 0.0018 and the relative viability ([5]; 0.00017 µM) was 1.11 ± 0.02. The relative viability ([5]; 0.00051 µM) was 1.108 ± 0.01, the relative viability ([5]; 0.00152 µM) was 1.11 ± 0.031 and the relative viability ([5]; 0.00457 µM) was 1.1 ± 0.029. The relative viability ([5]; 0.01372 µM) was 1.1 ± 0.029, the relative viability ([5]; 0.04115 µM) was 1.08 ± 0.018 and the relative viability ([5]; 0.1235 µM) was 0.9051 ± 0.0063. The relative viability ([5]; 0.3704 µM) was 0.785 ± 0.026, the relative viability ([5]; 1.111 µM) was 0.471 ± 0.013 and the relative viability ([5]; 3.333 µM) was 0.205 ± 0.0014. The relative viability ([5]; 10 µM) was 0.091 ± 0.0093, the relative viability ([6]; 0.00017 µM) was 0.996 ± 0.033 and the relative viability ([6]; 0.00051 µM) was 1 ± 0.053. The relative viability ([6]; 0.00152 µM) was 0.999 ± 0.02, the relative viability ([6]; 0.00457 µM) was 0.989 ± 0.044 and the relative viability ([6]; 0.01372 µM) was 0.936 ± 0.02. For the same compound, the relative viability ([6]; 0.04115 µM) was 0.804 ± 0.034, the relative viability ([6]; 0.1235 µM) was 0.497 ± 0.012 and the relative viability ([6]; 0.3704 µM) was 0.288 ± 0.014. The relative viability ([6]; 1.111 µM) was 0.16 ± 0.0038, the relative viability ([6]; 3.333 µM) was 0.0482 ± 0.0073 and the relative viability ([6]; 10 µM) was 0.0633 ± 0.0032. It also gave a relative viability ([7]; 0.00017 µM) of 1.1 ± 0.028, a relative viability ([7]; 0.00051 µM) of 1.06 ± 0.025 and a relative viability ([7]; 0.00152 µM) of 1.07 ± 0.064. The relative viability ([7]; 0.00457 µM) was 1 ± 0.035, the relative viability ([7]; 0.01372 µM) was 0.881 ± 0.074 and the relative viability ([7]; 0.04115 µM) was 0.543 ± 0.027. It also gave a relative viability ([7]; 0.1235 µM) of 0.329 ± 0.012, a relative viability ([7]; 0.3704 µM) of 0.0863 ± 0.0069 and a relative viability ([7]; 1.111 µM) of 0.0742 ± 0.0038. It also gave a relative viability ([7]; 3.333 µM) of 0.0554 ± 0.0012, a relative viability ([7]; 10 µM) of 0.0776 ± 0.0011 and a relative viability ([8]; 0.00017 µM) of 1.08 ± 0.052. It also gave a relative viability ([8]; 0.00051 µM) of 1.1 ± 0.028, a relative viability ([8]; 0.00152 µM) of 1.06 ± 0.024 and a relative viability ([8]; 0.00457 µM) of 1.04 ± 0.061. The relative viability ([8]; 0.01372 µM) was 1.01 ± 0.044, the relative viability ([8]; 0.04115 µM) was 0.878 ± 0.012 and the relative viability ([8]; 0.1235 µM) was 0.722 ± 0.067. It also gave a relative viability ([8]; 0.3704 µM) of 0.669 ± 0.047, a relative viability ([8]; 1.111 µM) of 0.541 ± 0.025 and a relative viability ([8]; 3.333 µM) of 0.353 ± 0.02. For the same compound, the relative viability ([8]; 10 µM) was 0.146 ± 0.0046, the relative viability ([9]; 0.00017 µM) was 1.15 ± 0.013 and the relative viability ([9]; 0.00051 µM) was 1.18 ± 0.032. The relative viability ([9]; 0.00152 µM) was 1.16 ± 0.03, the relative viability ([9]; 0.00457 µM) was 1.17 ± 0.034 and the relative viability ([9]; 0.01372 µM) was 1.18 ± 0.035. The relative viability ([9]; 0.04115 µM) was 1.13 ± 0.03, the relative viability ([9]; 0.1235 µM) was 1.11 ± 0.04 and the relative viability ([9]; 0.3704 µM) was 0.913 ± 0.02. For the same compound, the relative viability ([9]; 1.111 µM) was 0.659 ± 0.0087, the relative viability ([9]; 3.333 µM) was 0.346 ± 0.014 and the relative viability ([9]; 10 µM) was 0.0527 ± 0.0014. It also gave a relative viability ([10]; 0.00017 µM) of 1.08 ± 0.026, a relative viability ([10]; 0.00051 µM) of 1.07 ± 0.024 and a relative viability ([10]; 0.00152 µM) of 1.04 ± 0.038. It also gave a relative viability ([10]; 0.00457 µM) of 1.03 ± 0.016, a relative viability ([10]; 0.01372 µM) of 0.955 ± 0.05 and a relative viability ([10]; 0.04115 µM) of 0.803 ± 0.034. The relative viability ([10]; 0.1235 µM) was 0.648 ± 0.043, the relative viability ([10]; 0.3704 µM) was 0.507 ± 0.014 and the relative viability ([10]; 1.111 µM) was 0.358 ± 0.0086. It also gave a relative viability ([10]; 3.333 µM) of 0.267 ± 0.015, a relative viability ([10]; 10 µM) of 0.0094 ± 0.014 and a relative viability ([11]; 0.00017 µM) of 1.03 ± 0.019. It also gave a relative viability ([11]; 0.00051 µM) of 1.03 ± 0.025, a relative viability ([11]; 0.00152 µM) of 1.06 ± 0.021 and a relative viability ([11]; 0.00457 µM) of 1.03 ± 0.011. For the same compound, the relative viability ([11]; 0.01372 µM) was 0.895 ± 0.032, the relative viability ([11]; 0.04115 µM) was 0.697 ± 0.041 and the relative viability ([11]; 0.1235 µM) was 0.494 ± 0.0063. For the same compound, the relative viability ([11]; 0.3704 µM) was 0.381 ± 0.042, the relative viability ([11]; 1.111 µM) was 0.314 ± 0.021 and the relative viability ([11]; 3.333 µM) was 0.23 ± 0.01. It also gave a relative viability ([11]; 10 µM) of 0.0243 ± 0.0052, a relative viability ([12]; 0.00017 µM) of 1.06 ± 0.041 and a relative viability ([12]; 0.00051 µM) of 1.06 ± 0.019. It also gave a relative viability ([12]; 0.00152 µM) of 1.06 ± 0.026, a relative viability ([12]; 0.00457 µM) of 1.03 ± 0.031 and a relative viability ([12]; 0.01372 µM) of 0.953 ± 0.049. It also gave a relative viability ([12]; 0.04115 µM) of 0.838 ± 0.019, a relative viability ([12]; 0.1235 µM) of 0.657 ± 0.029 and a relative viability ([12]; 0.3704 µM) of 0.544 ± 0.016. The relative viability ([12]; 1.111 µM) was 0.42 ± 0.032, the relative viability ([12]; 3.333 µM) was 0.176 ± 0.019 and the relative viability ([12]; 10 µM) was -0.00757 ± 0.0024.
